Columns and labels:
[1] = system: nicotinic receptors, NIC-evoked [^3H]DA release from rat striatal slices; test: Inhibition of nicotine-evoked [^3H]dopamine release from superfused rat striatal slices; assay type: cell-based; settings: 1 h, 100 nM analog superfused 60 minutes prior to NIC (10 μM)
Protocol: Rat striatal slices (500 μm thickness, 6-8 mg wet weight) were incubated for 30 minutes in Krebs buffer (118 mM NaCl, 4.7 mM KCl, 1.2 mM MgCl2, 1.0 mM NaH2PO4, 1.3 mM CaCl2, 11.1 mM glucose, 25 mM NaHCO3, 0.11 mM L-ascorbic acid, and 0.004 mM disodium EDTA at pH 7.4, and saturated with 95% O2/5% CO2) in a metabolic shaker at 34° C. Slices were rinsed with 15 mL of fresh buffer, and were incubated for an additional 30 minutes in fresh buffer containing 0.1 μM [^3H]dopamine (DA; 6 slices/3 mL). Subsequently, slices were rinsed with 15 mL of fresh buffer and transferred to a glass superfusion chamber. Slices were superfused (1.0 mL/min) for 60 minutes with Krebs buffer containing nomifensine (10 μM) and pargyline (10 μM), and maintained at 34° C., pH 7.4, with continual aeration (95% O2/5% CO2). Two five minute samples (5 mL each) were collected to determine basal outflow of [^3H]DA. The test compounds of Formula (I) were added to the superfusion buffer after the collection of the second sample, and were maintained in the buffer until 12 consecutive five minute samples were collected. Subsequently, S-(−)-nicotine (10 μM) was added to the buffer, and an additional 12 consecutive five minute samples were collected. At the end of the experiment, each slice was solubilized, and the [^3H]content of the tissue determined.
Radioactivity in the superfusate and tissue samples was determined by liquid scintillation spectroscopy. Fractional release of tritium collected in each sample was divided by the total tritium present in the tissue at the time of sample collection, and the fractional release of tritium collected was expressed as a percentage of total tritium. Basal [^3H]outflow was calculated from the average of the tritium collected in the two five minute samples just before addition of a test compound of Formula (I). The sum of the increase in collected tritium resulting from either exposure to a test compound of Formula (I), or exposure to S(−) nicotine in the absence and presence of a test compound of Formula (I) equaled total [^3H]overflow. [^3H]Overflow was calculated by subtracting the [^3H]outflow during an equivalent period of pre-stimulation from the values in samples collected during and after drug exposure. Inasmuch as the radio-labeled compounds were not separated and identified, the tritium collected in superfusate is referred to as either [^3H]outflow or [^3H]overflow, rather than as [^3H]DA. [^3H]Overflow primarily represents [^3H]DA in the presence of nomifensine and pargyline in the superfusion buffer.
The quaternary analogs of Formula (I) were also evaluated for their ability to inhibit NIC-evoked [^3H]DA release. In these experiments, the striatal slices were superfused for 60 minutes with 100 nM concentration of the quaternary analogs prior to NIC (10 μM) exposure. Antagonist activity was evaluated by comparing the NIC-evoked [^3H]overflow in the absence and presence of the analogs. The relative order of potency of the quaternary analogs of Formula (I) for inhibition of NIC-evoked [^3H]DA release from rat striatal slices is illustrated in Table 1.
^aData are % inhibition at 100 nM concentration of the mono quaternary analogs for at least 1-3 independent experiments; with the exception of when a Ki value in μM is provided, in which case a full concentration effect was evaluated. Specific binding in the [^3H]NIC binding assay is calculated as the difference between the total binding of 3 nM [^3H]NIC and nonspecific binding in the presence of 10 μM cold nicotine. Specific binding for the [^3H]MLA binding assay is calculated as the difference between the total binding of 2.5 nM [^3H]MLA to the receptors alone and its nonspecific binding in the presence of 1 μM cold MLA. Analog-induced inhibition of nicotine-evoked [^3H]DA release is calculated as a percent of that in the absence of the mono quaternary ammonium analog. ND indicates not determined.

[2] = target: T1, Rat Striatal Nicotinic Receptors ([^3H]NIC binding) (Rattus norvegicus, UniProt P09483+P12390); test: Inhibition of [^3H]nicotine binding to brain membranes; settings: 3 nM [^3H]NIC; for inhibition at 0.1 µM: % inhibition at 100 nM analog, nonspecific 10 μM nicotine
T1 construct: Whole brain, excluding cortex and cerebellum, was homogenized; from tissue; host or cells: rat brain membranes (whole brain excluding cortex and cerebellum)
T1 sequence (P09483 31-630): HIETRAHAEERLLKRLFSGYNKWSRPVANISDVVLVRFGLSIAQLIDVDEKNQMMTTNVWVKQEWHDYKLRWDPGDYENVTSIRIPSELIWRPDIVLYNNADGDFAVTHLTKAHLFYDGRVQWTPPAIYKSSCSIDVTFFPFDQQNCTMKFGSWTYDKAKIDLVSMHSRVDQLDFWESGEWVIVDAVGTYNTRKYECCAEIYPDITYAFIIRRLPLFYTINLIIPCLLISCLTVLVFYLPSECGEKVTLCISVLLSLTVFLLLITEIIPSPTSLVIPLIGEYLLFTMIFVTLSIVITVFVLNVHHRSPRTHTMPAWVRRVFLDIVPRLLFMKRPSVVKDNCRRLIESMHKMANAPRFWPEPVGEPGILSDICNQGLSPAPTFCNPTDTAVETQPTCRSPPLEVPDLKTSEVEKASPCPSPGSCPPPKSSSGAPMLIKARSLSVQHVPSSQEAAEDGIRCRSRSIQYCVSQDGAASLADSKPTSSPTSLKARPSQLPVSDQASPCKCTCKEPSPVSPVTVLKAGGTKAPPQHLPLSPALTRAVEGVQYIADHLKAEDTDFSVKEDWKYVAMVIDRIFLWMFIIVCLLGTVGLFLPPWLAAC
T1 sequence (P12390 25-500): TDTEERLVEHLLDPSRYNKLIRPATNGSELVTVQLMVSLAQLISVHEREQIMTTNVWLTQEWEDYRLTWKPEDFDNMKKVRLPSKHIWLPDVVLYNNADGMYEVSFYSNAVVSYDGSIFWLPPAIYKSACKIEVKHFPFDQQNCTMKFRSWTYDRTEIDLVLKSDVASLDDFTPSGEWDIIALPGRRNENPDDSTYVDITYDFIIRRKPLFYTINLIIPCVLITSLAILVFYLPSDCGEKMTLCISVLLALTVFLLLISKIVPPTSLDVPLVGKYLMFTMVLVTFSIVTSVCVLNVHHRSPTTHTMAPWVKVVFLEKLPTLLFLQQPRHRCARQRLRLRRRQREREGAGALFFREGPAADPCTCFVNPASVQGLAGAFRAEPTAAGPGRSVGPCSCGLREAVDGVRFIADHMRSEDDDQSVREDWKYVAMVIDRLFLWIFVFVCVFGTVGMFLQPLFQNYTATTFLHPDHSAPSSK
Protocol: (§1) Test compounds of Formula (I), representing the mono quaternary nicotine analogs of the present invention, were evaluated to determine the effect of a test compound on nicotine-binding and methyllycaconitine-binding mediated by nicotine acetylcholine receptors.
(§2) Homogenate was centrifuged (25,000 g, 15 min, 4° C.). Pellets were resuspended in 20 volumes of buffer and incubated at 37° C., for 10 min, cooled to 4° C. and centrifuged (25,000 g, 15 min, 4° C.). Pellets were resuspended and centrifuged using the same conditions. […] Upon use, final pellets were resuspended in ˜20 volumes of assay buffer. Samples (250 μl) contained 100-140 μg of membrane protein, 3 nM [^3H]nicotine or 3 nM [^3H]methyllycaconitine (MLA), and test compounds of Formula (I) (100 nM) in assay buffer containing 50 mM Tris. A control sample absent test compounds of Formula (I) was also prepared. In the [^3H]nicotine-binding assay and [^3H]MLA-binding assay, nonspecific-binding was determined in the presence of 10 μM nicotine and 10 μM MLA, respectively. Incubations proceeded for 60 min at a room temperature using 96-well plates, and were terminated by harvesting on Unifilter-96 GF/B filter plates presoaked in 0.5% polyethylenimine, using a Packard FilterMate harvester. After washing 5 times with 350 μl ice-cold assay buffer, the filter plates were dried (60 min, 4° C.), bottom-sealed, and filled with Packard's MicroScint 20 cocktail (40 μl/well). After 60 min, filter plates were top-sealed, and levels of radioactivity were determined using a Packard TopCount. Protein concentrations were determined using the Bradford dye-binding procedure using bovine serum albumin as a standard protein.
Specific binding in the [^3H]NIC binding assay is calculated as the difference between the total binding of 3 nM [^3H]NIC and nonspecific binding in the presence of 10 μM cold nicotine. […] Analog-induced inhibition of nicotine-evoked [^3H]DA release is calculated as a percent of that in the absence of the mono quaternary ammonium analog. ND indicates not determined.

[3] = target: T2, Rat Striatal Nicotinic Receptors ([^3H]MLA binding) (Rattus norvegicus, UniProt Q05941); test: Inhibition of [^3H]methyllycaconitine (MLA) binding to brain membranes; settings: for inhibition at 0.1 µM: % inhibition at 100 nM analog, 2.5 nM [^3H]MLA, nonspecific 1 μM MLA (footnote)
T2 construct: Whole brain, excluding cortex and cerebellum, was homogenized; from tissue; host or cells: rat brain membranes (whole brain excluding cortex and cerebellum)
T2 sequence (Q05941 23-502): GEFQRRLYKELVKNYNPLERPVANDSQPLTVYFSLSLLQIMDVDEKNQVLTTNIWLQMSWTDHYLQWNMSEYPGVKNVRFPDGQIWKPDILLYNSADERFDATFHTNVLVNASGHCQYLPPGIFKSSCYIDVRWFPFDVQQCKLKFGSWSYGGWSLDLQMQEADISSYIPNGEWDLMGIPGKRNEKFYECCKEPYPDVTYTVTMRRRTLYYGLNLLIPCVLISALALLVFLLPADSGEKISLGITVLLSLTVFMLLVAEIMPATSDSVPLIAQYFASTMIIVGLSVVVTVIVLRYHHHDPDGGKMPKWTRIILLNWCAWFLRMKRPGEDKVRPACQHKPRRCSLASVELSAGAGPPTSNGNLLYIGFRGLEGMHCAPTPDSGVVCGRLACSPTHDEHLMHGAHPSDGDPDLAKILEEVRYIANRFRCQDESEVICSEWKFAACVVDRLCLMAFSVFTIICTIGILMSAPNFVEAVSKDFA
Protocol: as §1
as §2, with “Samples (250 μl) contained 100-140 μg of membrane protein, 3 nM [^3H]nicotine or 3 nM [^3H]methyllycaconitine (MLA), and test compounds of Formula (I) (100 nM) in assay buffer containing 50 mM Tris.” left out, “In the [^3H]nicotine-binding assay and [^3H]MLA-binding assay, nonspecific-binding was determined in the presence of 10 μM nicotine and 10 μM MLA, respectively.” left out, “protein. […]” for “protein.”

Compound | inhibition at 0.1 µM [1] [%] | inhibition at 0.1 µM [2] [%] | inhibition at 0.1 µM [3] [%] | Ki ([2]; full concentration effect) [µM] | Ki ([3]; full concentration effect, 2.5 nM [^3H]MLA (footnote)) [µM]
Cc1cccc[n+]1CCCCCCCCc1ccccc1 | 62 | 0 | 0 | – | –
CCCCc1ccc(CCCC[n+]2ccccc2C)cc1 | – | 0 | 0 | – | –
CCCCc1ccc(C#CCC[n+]2cccc(C)c2)cc1 | 11 | 0 | 0 | – | –
CCCCc1ccc(CCCC[n+]2cccc(C)c2)cc1 | 33 | 4 | 2 | – | –
Cc1ccc[n+](CCCCCCCCCCCCCc2cccnc2)c1 | 31 | 0 | 2 | – | –
CCCCc1ccc(C#CCC[n+]2ccc(C)cc2)cc1 | 11 | 6 | 3 | – | –
CCCCc1ccc(CCCC[n+]2ccc(C)cc2)cc1 | 58 | 5 | 0 | – | –
CCCCc1ccc(C#CCC[n+]2cccc(CC)c2)cc1 | – | 0 | 0 | – | –
CCCCc1ccc(CCCC[n+]2ccc3c(c2)CCCC3)cc1 | – | – | – | > 100 | 14
CCCCc1ccc(C#CCC[n+]2cccc(CCCO)c2)cc1 | – | 0 | 0 | – | –
CCCCc1ccc(CCCC[n+]2cccc(CCCO)c2)cc1 | 64 | 0 | 0 | – | –
CCCCc1ccc(CCCC[n+]2ccc(C)cc2C)cc1 | 19 | 6 | 0 | – | –
Cc1cc[n+](CCCCCCCCc2ccccc2)c(C)c1 | 14 | 0 | 9 | – | –
CCCCc1ccc(C#CCC[n+]2ccc(C)c(C)c2)cc1 | – | 0 | 10 | – | –
Cc1cc[n+](CCCCCCCCCCCCCc2cccnc2)cc1C | 20 | 3 | 0 | – | –
CCCCc1ccc(CCCC[n+]2ccc(C)c(C)c2)cc1 | – | 0 | 0 | – | –
CCCCc1ccc(C#CCC[n+]2cc(C)cc(C)c2)cc1 | – | 0 | 0 | – | –
CCCCc1ccc(CCCC[n+]2cc(C)cc(C)c2)cc1 | – | 0 | 0 | – | –
Cc1cc(C)c[n+](CCCCCCCCCCCCCc2cccnc2)c1 | 35 | 0 | 0 | – | –
Cc1cccc[n+]1CCCC#Cc1ccc(-c2ccccc2)cc1 | 45 | 2 | 7 | – | –

Compound | inhibition at 0.1 µM [1] [%] | inhibition at 0.1 µM [2] [%] | inhibition at 0.1 µM [3] [%] | Ki ([2]; full concentration effect) [µM] | Ki ([3]; full concentration effect, 2.5 nM [^3H]MLA (footnote)) [µM]
Cc1cccc[n+]1CCCCCc1ccc(-c2ccccc2)cc1 | 45 | – | – | – | –
Cc1ccc[n+](CCCC#Cc2ccc(-c3ccccc3)cc2)c1 | 41 | 0 | 2 | – | –
Cc1ccc[n+](CCCCCc2ccc(-c3ccccc3)cc2)c1 | 55 | 4 | 7 | – | –
Cc1cc[n+](CCCCCc2ccc(-c3ccccc3)cc2)cc1 | 18 | – | – | – | –
Cc1cc[n+](CCCC#Cc2ccc(-c3ccccc3)cc2)cc1 | 40 | 0 | 3 | – | –
Cc1cc(C)c[n+](CCCC#Cc2ccc(-c3ccccc3)cc2)c1 | 51 | 8 | 3 | – | –
Cc1cc(C)c[n+](CCCCCc2ccc(-c3ccccc3)cc2)c1 | 51 | – | – | – | –
Cc1cc[n+](CCCC#Cc2ccc(-c3ccccc3)cc2)cc1C | 20 | 0 | 8 | – | –
Cc1cc[n+](CCCCCc2ccc(-c3ccccc3)cc2)cc1C | 38 | – | – | – | –
Cc1cc[n+](CCCC#Cc2ccc(-c3ccccc3)cc2)c(C)c1 | 5 | 2 | 6 | – | –
Cc1cc[n+](CCCCCc2ccc(-c3ccccc3)cc2)c(C)c1 | 39 | – | – | – | –
C(#Cc1ccc(-c2ccccc2)cc1)CCC[n+]1cccc2ccccc21 | 23 | 1 | 7 | – | –
c1ccc(-c2ccc(CCCCC[n+]3cccc4ccccc43)cc2)cc1 | 61 | – | – | – | –
C(#Cc1ccc(-c2ccccc2)cc1)CCC[n+]1ccc2ccccc2c1 | – | 0 | 6 | – | –
c1ccc(-c2ccc(CCCCC[n+]3ccc4ccccc4c3)cc2)cc1 | – | 0 | 6 | – | –
CN1CCC[C@H]1c1ccc[n+](CCCC#Cc2ccc(-c3ccccc3)cc2)c1 | 47 | 20 | 6 | – | –
CN1CCC[C@H]1c1ccc[n+](CCCCCc2ccc(-c3ccccc3)cc2)c1 | 51 | – | – | – | –
CCCCc1ccc[n+](CCCCCc2ccc(-c3ccccc3)cc2)c1 | 43 | – | – | – | –
C(#Cc1ccc(-c2ccccc2)cc1)CCC[n+]1cccc(-c2ccccc2)c1 | – | 8 | 6 | – | –
c1ccc(-c2ccc(CCCCC[n+]3ccccc3)cc2)cc1 | 30 | – | – | – | –

Reference: patent US8846937B2, “Mono quaternary ammonium salts and methods for modulating neuronal nicotinic acetylcholine receptors” (University of Kentucky Research Foundation, priority 2006, dated 2014)
